In ChEMBL document CHEMBL3784938, “Novel heterocyclic ring-fused oleanolic acid derivatives as osteoclast inhibitors for osteoporosis” (Medchemcomm, 2016):
Activity calls are given as the source filed them. The calls are words filed in the database; no cut-off is given here.

Experiments:
RAW264.7 [1] = assay: Antiosteoclast activity in mouse RAW264.7 cells assessed as inhibition of RANKL-induced osteoclast differentiation at 20 uM after 5 days by TRAP assay; format: functional; details: RAW264.7, 120 h
RAW264.7 [2] = assay: Antiosteoclast activity in mouse RAW264.7 cells assessed as inhibition of RANKL-induced osteoclast differentiation at 2 uM after 5 days by TRAP assay; format: functional; details: RAW264.7, 120 h
[3] = Cytotoxicity against mouse RAW264.7 cells assessed as inhibition of cell viability at 20 uM after 24 hrs by MTT assay; format: cell-based; details: read-out: INH
[4] = Cytotoxicity against mouse RAW264.7 cells assessed as inhibition of cell viability at 10 uM after 24 hrs by MTT assay; format: cell-based; details: read-out: INH
[5] = Cytotoxicity against mouse RAW264.7 cells assessed as inhibition of cell viability at 5 uM after 24 hrs by MTT assay; format: cell-based; details: read-out: INH
[6] = Cytotoxicity against mouse RAW264.7 cells assessed as inhibition of cell viability at 2 uM after 24 hrs by MTT assay; format: cell-based; details: read-out: INH
RAW264.7 [7] = assay: cells; details: Mus musculus, RAW264.7, 120 h
Description: Antiosteoclast activity in mouse RAW264.7 cells assessed as inhibition of RANKL-induced osteoclast differentiation after 5 days by TRAP assay

Rattus norvegicus = assay: Antiosteoporotic effect in ovariectomy rat model assessed as increase in bone mineral density of lumbar spine L3 to L5 at 1 mg/kg/day, po administered for 4 weeks by dual-energy X-ray absorptiometry relative to control; format: functional, organism-based

IC50 (RAW264.7 [7]) [nM] | Structure (SMILES) | inhibition at 20 µM (RAW264.7 [1]) [%] | inhibition at 2 µM (RAW264.7 [2]) [%] | cytotoxicity at 24 h, 20 µM [3] [%] | cytotoxicity at 24 h, 10 µM [4] [%] | cytotoxicity at 24 h, 5 µM [5] [%] | cytotoxicity at 24 h, 2 µM [6] [%] | Activity (Rattus norvegicus)
78 | CC1(C)CC[C@]2(C(=O)NCCN3CCCCC3)CC[C@]3(C)C(=CC[C@@H]4[C@@]5(C)Cc6cn(S(=O)(=O)c7ccc(Br)cc7)nc6C(C)(C)[C@@H]5CC[C@]43C)[C@@H]2C1 | 100 | 100 | 70.8 | 67.2 | 0 | 0 | –
99 | CC1(C)CC[C@]2(C(=O)NCCN3CCCCC3)CC[C@]3(C)C(=CC[C@@H]4[C@@]5(C)Cc6c[nH]nc6C(C)(C)[C@@H]5CC[C@]43C)[C@@H]2C1 | 100 | 95.1 | 0 | 0 | 0 | 0 | –
88 | COc1ccc(S(=O)(=O)n2cc3c(n2)C(C)(C)[C@@H]2CC[C@]4(C)[C@H](CC=C5[C@@H]6CC(C)(C)CC[C@]6(C(=O)NCCN6CCCCC6)CC[C@]54C)[C@@]2(C)C3)cc1 | 100 | 100 | 72.9 | 67.5 | 0 | 0 | –
130 | COc1ccc(S(=O)(=O)n2cc3c(n2)C(C)(C)[C@@H]2CC[C@]4(C)[C@H](CC=C5[C@@H]6CC(C)(C)CC[C@]6(C(=O)NCCN6CCCCC6)CC[C@]54C)[C@@]2(C)C3)cc1OC | 100 | 100 | 71.1 | 52.6 | 0 | 0 | –
35 | COc1ccc(S(=O)(=O)n2cc3c(n2)C(C)(C)[C@@H]2CC[C@]4(C)[C@H](CC=C5[C@@H]6CC(C)(C)CC[C@]6(C(=O)NC6CCN(Cc7ccccc7)CC6)CC[C@]54C)[C@@]2(C)C3)cc1OC | 100 | 93.2 | 0 | 0 | 0 | 0 | –
– | Cc1noc(C)c1S(=O)(=O)n1cc2c(n1)C(C)(C)[C@@H]1CC[C@]3(C)[C@H](CC=C4[C@@H]5CC(C)(C)CC[C@]5(C(=O)NCCN5CCCCC5)CC[C@]43C)[C@@]1(C)C2 | 100 | 22.3 | 72 | 70.7 | 0 | 0 | –
43 | CC1(C)CC[C@]2(C(=O)NCCN3CCCCC3)CC[C@]3(C)C(=CC[C@@H]4[C@@]5(C)Cc6cn(S(=O)(=O)c7ccc(F)cc7)nc6C(C)(C)[C@@H]5CC[C@]43C)[C@@H]2C1 | 100 | 100 | 70.8 | 74 | 0 | 0 | –

Structure (SMILES) | IC50 (RAW264.7 [7]) [nM] | inhibition at 20 µM (RAW264.7 [1]) [%] | inhibition at 2 µM (RAW264.7 [2]) [%] | cytotoxicity at 24 h, 20 µM [3] [%] | cytotoxicity at 24 h, 10 µM [4] [%] | cytotoxicity at 24 h, 5 µM [5] [%] | cytotoxicity at 24 h, 2 µM [6] [%] | Activity (Rattus norvegicus)
NCCCC(O)(P(=O)(O)O)P(=O)(O)O [ALENDRONATE SODIUM] | 84 | – | 93.2 | – | – | – | – | Active
